Patent US20260258084A1, “New Peptides as Selective IL-23 Receptor Antagonists” (Sanofi, priority 2022, published 2026)
Where two headings read alike, the source gives them in different places. Positions of bridges follow the written chain, without caps; N, C: chain ends. Non-standard residues stand in square brackets, D forms with d. Residues, ends and D or L forms follow the SMILES beside them. 2Nal = N[C@@H](Cc1ccc2ccccc2c1)C(=O)O; Pen = CC(C)(S)[C@H](N)C(=O)O; Thp = NC1(C(=O)O)CCOCC1; Aib = CC(C)(N)C(=O)O; Ahx = NCCCCCC(=O)O; Ava = NCCCCC(=O)O

Key:
[1] = molecular target: T1, human interleukin-23 receptor (recombinant human IL-23R-Fc chimera) (Homo sapiens, UniProt Q5VWK5); assay: Human ELISA IL23/IL23R (assay for specific human IL23R antagonists); assay type: binding
T1 construct: Fc (IgG Fc fusion)
Description: Antagonism of compounds for human interleukin-23 receptor antagonists, was determined by an ELISA assay.
A 384-well plate was coated with 50 μl/well of human IL23 at a final concentration of […] and incubated overnight at 4° C. The wells were washed 3 times with 80 μl wash buffer and blocked with 80 μl blocking buffer for 60 minutes at room temperature and washed again. 20 μl of serially diluted test peptides was added to each well and subsequently 20 μl of recombinant human IL-23R-Fc chimera at final concentration of 0.1 μg/ml. The plate was incubated for 60 minutes at room temperature. After the wells were washed, bound IL23R-Fc was detected with goat anti-hu-IgG1-HRP antibody. Signals were visualized with QuantaBlu Fluorogenic Peroxidase Substrate.

[2] = test system: IL-23 induced STAT3 signaling in HEK-Blue™ IL-23 cells; assay: IL-23 induced STAT3 signaling in HEK-Blue IL-23 cells (SEAP reporter); assay type: cell-based; details: human IL23 0.25 ng/ml, read-out: pSTAT3
Text: HEK-Blue™ IL-23 cells (Invivogen) are designed for the detection of bioactive human (hIL-23) and murine IL-23 (mIL-23) by monitoring the activation of the STAT3 pathway. Binding of IL-23 to its receptor on the surface of HEK-Blue™ IL-23 cells triggers a signalling cascade leading to the activation of STAT3 and the subsequent production of secreted embryonic alkaline phosphatase (SEAP). This can be readily assessed using QUANTI-Blue™ Solution, a SEAP detection reagent.
HEK-Blue™ IL-23 cells were cultured as described by Invivogen.
On the first day of assay 10 μL of the HEK-Blue IL23 cell suspension (final concentration: 10,000 cells/well) and 10 μl of serially diluted peptides solutions were dispensed into a 384-well assay plate. After pre-incubation of the reaction mixtures at 37° C./5% CO2/95% humidity for 60 minutes, 10 μl of the human IL23 cytokine (final concentration: 0.25 ng/ml) was added to each well for the STAT3 signalling activation. The plate was incubated overnight at 37° C./5% CO2/95% humidity.
On the second day 20 μl per well of Quanti-Blue detection solution (prepared according to the manufacture instruction) was dispensed into a new 384-well plate and followed by the transfer of 5 μl supernatant of the overnight incubated cell/sample mixtures. After incubation of 45 min at room temperature signals were measured with PHERAstar (BMG) at OD 620-655 nm. Dose response data were fitted with XLfit.

[3] = Table 11, Pen peptide compounds, read-out: Elisa IC50 Pen

Row | IC50 [1, 3] [nM] | IC50 ([1]; Table 10, read-out: Human ELISA IL23/IL23R IC50) [nM] | Structure (SMILES) | IC50 [2] [nM]
1 | 23.1 | – | COc1ccc(C[C@@H]2NC(=O)[C@@H]3CSSC(C)(C)[C@H](NC(=O)CCCCCNC(=O)C[C@@H](C(=O)N[C@@H](CC(N)=O)C(=O)N[C@@H](CC(N)=O)C(N)=O)NC(=O)C(C)(C)NC(=O)[C@H](Cc4ccc5ccccc5c4)NC2=O)C(=O)N[C@@H](CC(N)=O)C(=O)N[C@@H]([C@@H](C)O)C(=O)N[C@@H](Cc2c[nH]c4ccccc24)C(=O)N[C@@H](CCC(N)=O)C(=O)N3)cc1 [compound 164] ([Ahx][Pen]NTWQCY(Me)[2Nal][Aib]DNN-NH2; disulfide 2-7; lactam N-11) | –
2 | 76.6 | – | COc1ccc(C[C@@H]2NC(=O)[C@H]3NC(=O)[C@H](CCC(N)=O)NC(=O)[C@H](Cc4c[nH]c5ccccc45)NC(=O)[C@H]([C@@H](C)O)NC(=O)[C@H](CC(N)=O)NC(=O)[C@@H](NC(=O)CCCCCNC(=O)CC[C@@H](C(=O)N[C@@H](CC(N)=O)C(=O)NCC(N)=O)NC(=O)C4(CCOCC4)NC(=O)[C@H](Cc4ccc5ccccc5c4)NC2=O)C(C)(C)SSC3(C)C)cc1 [compound 161] ([Ahx][Pen]NTWQ[Pen]Y(Me)[2Nal][Thp]ENG-NH2; disulfide 2-7 (inferred); lactam N-11 (inferred)) | –
3 | 72.2 | – | COc1ccc(C[C@@H]2NC(=O)[C@H]3NC(=O)[C@H](CCC(N)=O)NC(=O)[C@H](Cc4c[nH]c5ccccc45)NC(=O)[C@H]([C@@H](C)O)NC(=O)[C@H](CC(N)=O)NC(=O)[C@@H](NC(=O)CCCCCNC(=O)CC[C@@H](C(=O)N[C@@H](CC(N)=O)C(=O)N[C@@H](CC(N)=O)C(N)=O)NC(=O)C(C)(C)NC(=O)[C@H](Cc4ccc5ccccc5c4)NC2=O)C(C)(C)SSC3(C)C)cc1 [compound 160] ([Ahx][Pen]NTWQ[Pen]Y(Me)[2Nal][Aib]ENN-NH2; disulfide 2-7; lactam N-11) | –

Continued, molecule first:

Row | Structure (SMILES) | IC50 [1, 3] [nM] | IC50 ([1]; Table 10, read-out: Human ELISA IL23/IL23R IC50) [nM] | IC50 [2] [nM]
4 | COc1ccc(C[C@@H]2NC(=O)[C@H]3NC(=O)[C@H](CCC(N)=O)NC(=O)[C@H](Cc4c[nH]c5ccccc45)NC(=O)[C@H]([C@@H](C)O)NC(=O)[C@H](CC(N)=O)NC(=O)[C@@H](NC(=O)CCCCNC(=O)CC[C@@H](C(=O)N[C@@H](CC(N)=O)C(=O)N[C@@H](CC(N)=O)C(N)=O)NC(=O)C(C)(C)NC(=O)[C@H](Cc4ccc5ccccc5c4)NC2=O)C(C)(C)SSC3(C)C)cc1 [compound 159] ([Ava][Pen]NTWQ[Pen]Y(Me)[2Nal][Aib]ENN-NH2; disulfide 2-7; lactam N-11) | 280 | – | –
5 | COc1ccc(C[C@@H]2NC(=O)[C@H]3NC(=O)[C@H](CCC(N)=O)NC(=O)[C@H](Cc4c[nH]c5ccccc45)NC(=O)CCCCNC(=O)[C@H](CCC(=O)O[C@@H]3C)NC(=O)CCCCCNC(=O)C[C@@H](C(=O)N[C@@H](CC(N)=O)C(=O)N[C@@H](CC(N)=O)C(N)=O)NC(=O)C(C)(C)NC(=O)[C@H](Cc3ccc4ccccc4c3)NC2=O)cc1 [compound 39] ([Ahx]E[Ava]WQTY(Me)[2Nal][Aib]DNN-NH2; ester 2-6; lactam N-10) | – | 1.1 | 26.4
